Data set [1] can be described thus: Toxicity in Zebrafish embryo assessed as reduction in viability at 100 uM measured after 24 hrs by microscope based analysis relative to control. Also noted: species or system Danio rerio. The following applies: read-out: Activity.
Data set [2] can be described thus: Toxicity in Zebrafish embryo assessed as reduction in viability at 50 uM measured after 24 hrs by microscope based analysis relative to control. Also noted: species or system Danio rerio. The following applies: read-out: Activity.
Data set [3] has as its system Caenorhabditis elegans. Kind of data set: Nematicidal activity against Caenorhabditis elegans assessed as reduction in larval motility. In kind it is functional, organism-based.
In data set [4] the test system is Caenorhabditis elegans. Description: Nematicidal activity against Caenorhabditis elegans assessed as total paralysis at 100 to 200 uM relative to control. The following applies: dose 100-200 µM. The format is functional.

As a reminder, the IC50 is the midpoint of a concentration-inhibition curve. Consider `CC1=CC(=O)C[C@@H]2[C@@](C)(CC/C(C)=C/C[n+]3cn(C)c4ncnc(N)c43)[C@H](C)CC[C@@]12C`, for which, in data set [1], the mortality at 24 h, 100 µM turned out to be 100%. The mortality at 24 h, 50 µM in data set [2] is 100%. Besides, the IC50 in the data set on Caenorhabditis elegans [3] stood at 50 µM. Further, the Activity in the data set on Caenorhabditis elegans [4] is listed as 100%.

Regarding `C=CCCCCCCCCC[C@@H](O)[C@H](C)N` [HALAMINOL A], the mortality at 24 h, 100 µM in data set [1] stood at 66.6%. In addition, the mortality at 24 h, 50 µM in data set [2] amounted to 100%.

`CC1=CCC[C@@H]2[C@@](C)(CC/C(C)=C/Cn3c[n+](C)c4ncnc(N)c43)[C@H](C)CC[C@@]12C`: the mortality at 24 h, 100 µM in data set [1] worked out at 100%. Besides, in data set [2], the mortality at 24 h, 50 µM was found to be 100%.
